Measurements as given in US20210145830A1, “MATERIALS AND METHODS FOR TREATING CANCER” (Mayo Foundation for Medical Education and Research, priority 2018, published 2021).

What was measured:
CART19 = assay: T cell degranulation and intracellular cytokine assays; type: cell-based
Method: FIG. 22A-C. In vitro experiment for the combination of CART19 and TP0903. A. CART19 were cocultured at different effector-to-target ratio (E:T) with luciferase-positive JeKo-1. At 48 hours, cell killing was assessed by luminescence. […] The means and SEM are shown (**, p<0.005, *, p<0.05, one-way ANOVA analysis). n.s., not statistically significant. B. CART19 degranulation assay and cytokine production in the presence of TP0903. CART19 were cocultured with JeKo-1 for 4 hours in the presence of TP0903 doses of TP0903 (10-65 nM). […] C. Th2/Th1 T cell subtype analysis during CART19 expansion in the presence pf TP0903. CART19 cells were stimulated with lethally irradiated (120 Gy) JeKo-1 cell lines in the presence of increasing doses of TP0903 (10-30 nM). At the day 3, Th1 and Th2 cells were defined using CD4, CCR6, CCR4 and CXCR3 expression. […] The means and SEM are shown (*, p<0.05, one-way ANOVA analysis). n.s., not statistically significant.
Briefly, T cells were incubated with target cells at a 1:5 ratio. After staining for CAR expression, antibodies against CD107a, CD28, CD49d and monensin were added at the time of incubation. After 4 hours, cells were harvested and stained for CD3, CD4, and Live Dead staining (Invitrogen). Cells were fixed and permeabilized (FIX & PERM Cell Fixation & Cell Permeabilization Kit, Life Technologies) and intracellular cytokine staining was then performed as indicated in the specific experiments.
T cells were incubated with target cells at a 1:5 ratio (experiments were done using JEKO cells as well as primary B cells). Antibodies against CD107a, CD28, CD49d and monensin were added at the time of incubation.
After 4 hours, cells were harvested and stained for CD3, CD4, and Live Dead staining (Invitrogen). Cells were fixed and permeabilized (FIX & PERM Cell Fixation & Cell Permeabilization Kit, Life Technologies), and intracellular cytokine staining was then performed. […] The number of CD4 and CD8 cells positively stained for cluster of differentiation 107a (CD107a) or granulocyte-macrophage colony-stimulating factor (GM-CSF) in degranulation assays were shown in FIG. 5. The number of CD4 cells positively stained for interleukin-2 (IL-2) or interleukin-4 (IL-4) in degranulation assays were shown in FIG. 6.

Naïve T cells = assay: Inhibitory receptor expression in stimulated naïve T cells; type: cell-based; conditions: PMA/Ionomycin
Method: FIGS. 19A-F. A. Inhibitory receptors expression in naïve T cells after TCR activation with CD3 stimulation in the increasing dose of TP0903. Naïve T cells were incubated with anti CD3/CD28 beads at a 1 to 3 ratio in the presence of TP0903. At day 3, T cells were stained with PD-1, TIM-3, LAG-3, and ICOS. […] Teff cells were isolated by negative selection using Human T Cell Isolation Kit. Tregs were isolated by negative selection using the human CD4^+CD127^lowCD25^+ Treg isolation kit. Teff and Treg were stimulated with anti CD3/CD28 beads and 400 U/ml of IL-2. At day 5, total T cells were evaluated via CountBright quantification. C. CART19 cytokine assay in the presence TP0903. UTDs or CART19 were incubated with Jeko in the presence of TP-0903 at a 1 to 1 ratio. Supernatant was harvested and analyzed by 32-plex Luminex array after 3 days. D. Inhibitory receptors expression in CART19 cells in the presence TP0903. UTDs or CART19 were incubated with Jeko at a 1 to 1 E/T ratio in the presence of TP0903. At day 5, T cells were stained with PD-1 (left), LAG-3 (right), and TIM-3. […] Cell killing was assessed by luminescence at 24 hours. […]
FIG. 21A-E. TP0903 modulates naïve T cells function upon stimulation of PMA/Ionomycin in vitro. […] At day 5, total T cells were evaluated via CountBright quantification.

[1] = T cells:targets 1:5, JEKO or primary B cells, 4 hours

CN1CCN(Cc2ccc(Nc3ncc(Cl)c(Nc4ccccc4S(=O)(=O)N(C)C)n3)cc2)CC1 [TP0903]
T cell specific degranulation or intracellular cytokines (CD107a, GM-CSF) (CART19; CD4 and CD8 cells): did not inhibit
activation of CART19 cells (CD107a degranulation, intracytoplasmic IL-2, IFN-γ, GM-CSF) (CART19; JeKo-1, 4 hours, TP0903 10-65 nM, presence or absence of TP0903): significant activation
secretion of IL-4 (CART19; JeKo-1, 4 hours, increasing dose of TP0903 (10-65 nM)): downregulated
CART cell functions (CART19; [1]): did not impair
Th2 cytokines (intracellular staining) (CART19; [1]): lowered
inhibitory receptors (PD-1, LAG-3, TIM-3, and ICOS) (Naïve T cells; day 3, high dose TP0903): significantly downregulated
inhibitory receptors (Naïve T cells; low dose TP0903): significant reduction
